According to the supplement of paper PMC10307832:

What was measured:
Experiment in all cases: relative viability (nuclei count vs DMSO), 5 days (fraction); higher = more cells survive
NCI-H1792 = tested on: NCI-H1792
Outline: (§1)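 Lung cancer cell lines, seeded in 1536-well plates, were treated the following day by pin tool with a single drug or with five library-drug doses (not always all listed) in √10 steps on top of a fixed anchor-drug dose. Cells were fixed and nuclei stained in one step after 5 days, and nuclei were counted. Relative viability is the nuclei count for treated wells divided by that for vehicle wells, reported as medians of duplicate plates.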

NCI-H23 = tested on: NCI-H23
Outline: as §1

EKVX = tested on: EKVX
Outline: as §1

NCI-H838 = tested on: NCI-H838
Outline: as §1

NCI-H358 = tested on: NCI-H358
Outline: as §1

A-427 = tested on: A-427
Outline: as §1

HCC-15 = tested on: HCC-15
Outline: as §1

HCC-827 = tested on: HCC-827
Outline: as §1

COR-L 105 = tested on: COR-L 105
Outline: as §1

NCI-H1437 = tested on: NCI-H1437
Outline: as §1

BEN = tested on: BEN
Outline: as §1

201T = tested on: 201T
Outline: as §1

NCI-H1666 = tested on: NCI-H1666
Outline: as §1

LK-2 = tested on: LK-2
Outline: as §1

COR-L23 = tested on: COR-L23
Outline: as §1

NCI-H650 = tested on: NCI-H650
Outline: as §1

HCC-44 = tested on: HCC-44
Outline: as §1

SK-MES-1 = tested on: SK-MES-1
Outline: as §1

HARA = tested on: HARA
Outline: as §1

NCI-H596 = tested on: NCI-H596
Outline: as §1

NCI-H1975 = tested on: NCI-H1975
Outline: as §1

## Oc1nc(-c2ccc(C(F)(F)F)cc2)nc2c1CSCC2 [XAV939] + CS(=O)(=O)CCNCc1ccc(-c2ccc3ncnc(Nc4ccc(OCc5cccc(F)c5)c(Cl)c4)c3c2)o1 [Lapatinib] (partner 2 µM)
NCI-H1792; first compound 0.08 µM
  relative viability: 1.14
NCI-H1792; first compound 0.253 µM
  relative viability: 0.523
NCI-H1792; first compound 0.8 µM
  relative viability: 0.805
NCI-H1792; first compound 2.53 µM
  relative viability: 0.806
NCI-H23; first compound 0.08 µM
  relative viability: 1.17
NCI-H23; first compound 0.253 µM
  relative viability: 1.01
NCI-H23; first compound 0.8 µM
  relative viability: 0.966
NCI-H23; first compound 2.53 µM
  relative viability: 0.932
EKVX; first compound 0.08 µM
  relative viability: 0.193
EKVX; first compound 0.253 µM
  relative viability: 0.181
EKVX; first compound 0.8 µM
  relative viability: 0.162
EKVX; first compound 2.53 µM
  relative viability: 0.125
NCI-H838; first compound 0.08 µM
  relative viability: 1.13
NCI-H838; first compound 0.253 µM
  relative viability: 0.918
NCI-H838; first compound 0.8 µM
  relative viability: 0.949
NCI-H838; first compound 2.53 µM
  relative viability: 0.767
NCI-H358; first compound 0.08 µM
  relative viability: 0.502
NCI-H358; first compound 0.253 µM
  relative viability: 0.469
NCI-H358; first compound 0.8 µM
  relative viability: 0.494
NCI-H358; first compound 2.53 µM
  relative viability: 0.434
A-427; first compound 0.08 µM
  relative viability: 1.09
A-427; first compound 0.253 µM
  relative viability: 1.02
A-427; first compound 0.8 µM
  relative viability: 1.11
A-427; first compound 2.53 µM
  relative viability: 1.03
HCC-15; first compound 0.08 µM
  relative viability: 1.02
HCC-15; first compound 0.253 µM
  relative viability: 0.774
HCC-15; first compound 0.8 µM
  relative viability: 0.829
HCC-15; first compound 2.53 µM
  relative viability: 0.806
HCC-827; first compound 0.08 µM
  relative viability: 0.194
HCC-827; first compound 0.253 µM
  relative viability: 0.178
HCC-827; first compound 0.8 µM
  relative viability: 0.238
HCC-827; first compound 2.53 µM
  relative viability: 0.187
COR-L 105; first compound 0.08 µM
  relative viability: 0.426
COR-L 105; first compound 0.253 µM
  relative viability: 0.347
COR-L 105; first compound 0.8 µM
  relative viability: 0.37
COR-L 105; first compound 2.53 µM
  relative viability: 0.301
NCI-H1437; first compound 0.08 µM
  relative viability: 0.938
NCI-H1437; first compound 0.253 µM
  relative viability: 0.709
NCI-H1437; first compound 0.8 µM
  relative viability: 0.772
NCI-H1437; first compound 2.53 µM
  relative viability: 0.639
BEN; first compound 0.08 µM
  relative viability: 0.656
BEN; first compound 0.253 µM
  relative viability: 0.547
BEN; first compound 0.8 µM
  relative viability: 0.584
BEN; first compound 2.53 µM
  relative viability: 0.435
201T; first compound 0.08 µM
  relative viability: 1.08
201T; first compound 0.253 µM
  relative viability: 0.866
201T; first compound 0.8 µM
  relative viability: 0.948
201T; first compound 2.53 µM
  relative viability: 0.896
NCI-H1666; first compound 0.08 µM
  relative viability: 0.571
NCI-H1666; first compound 0.253 µM
  relative viability: 0.415
NCI-H1666; first compound 0.8 µM
  relative viability: 0.442
NCI-H1666; first compound 2.53 µM
  relative viability: 0.353
LK-2; first compound 0.08 µM
  relative viability: 0.979
LK-2; first compound 0.253 µM
  relative viability: 0.981
LK-2; first compound 0.8 µM
  relative viability: 1.04
LK-2; first compound 2.53 µM
  relative viability: 0.928
COR-L23; first compound 0.08 µM
  relative viability: 1.04
COR-L23; first compound 0.253 µM
  relative viability: 0.924
COR-L23; first compound 0.8 µM
  relative viability: 0.932
COR-L23; first compound 2.53 µM
  relative viability: 0.89
NCI-H650; first compound 0.08 µM
  relative viability: 0.868
NCI-H650; first compound 0.253 µM
  relative viability: 0.957
NCI-H650; first compound 0.8 µM
  relative viability: 1
NCI-H650; first compound 2.53 µM
  relative viability: 0.893
HCC-44; first compound 0.08 µM
  relative viability: 1.01
HCC-44; first compound 0.253 µM
  relative viability: 0.816
HCC-44; first compound 0.8 µM
  relative viability: 0.955
HCC-44; first compound 2.53 µM
  relative viability: 0.928
SK-MES-1; first compound 0.08 µM
  relative viability: 0.499
SK-MES-1; first compound 0.253 µM
  relative viability: 0.389
SK-MES-1; first compound 0.8 µM
  relative viability: 0.424
SK-MES-1; first compound 2.53 µM
  relative viability: 0.406
HARA; first compound 0.08 µM
  relative viability: 0.73
HARA; first compound 0.253 µM
  relative viability: 0.419
HARA; first compound 0.8 µM
  relative viability: 0.402
HARA; first compound 2.53 µM
  relative viability: 0.606
NCI-H596; first compound 0.08 µM
  relative viability: 1.21
NCI-H596; first compound 0.253 µM
  relative viability: 1.12
NCI-H596; first compound 0.8 µM
  relative viability: 1.1
NCI-H596; first compound 2.53 µM
  relative viability: 0.656
NCI-H1975; first compound 0.08 µM
  relative viability: 0.733
NCI-H1975; first compound 0.253 µM
  relative viability: 0.655
NCI-H1975; first compound 0.8 µM
  relative viability: 0.753
NCI-H1975; first compound 2.53 µM
  relative viability: 0.646
